From patent US9428452B2, “Compounds” (Glaxo Group Limited, priority 2012, dated 2016) come the findings set out here.

In test [1] the test system is IL-17A secreted from antiCD3/CD28 stimulated Peripheral Blood Mononuclear cells (PBMC). Kind of test: Peripheral Blood Mononucleocyte Cell Assay (PBMC Assay - IL-17). It is filed as cell-based. The settings on record: Homo sapiens, 48 h, IL-17A release, read-out: mean pIC50 (converted). The procedure: Peripheral Blood Mononucleocvte Cell Assay (PBMC Assay—IL-17) […]
This assay is designed to measure levels of IL-17A secreted from antiCD3/CD28 stimulated frozen Peripheral Blood Mononuclear cells (PBMC) isolated from human blood with the aim of identifying inhibitors of IL-17A release.
2. The compounds for screening are dispensed into a master plate at 10 mM top concentration which are serially diluted 1:3 across 11 points in DMSO, then 500 nL is transferred into a 384-well flat-bottomed Greiner plate to which 50 uL of cell suspension is added: for the single shot screening the highest concentration of compound is 10^−5M; for 11 point full curve dose response studies the highest concentration is 10^−4 M.
As a low control, DMSO (as supplied, for example, by VWR) (final concentration 1%) in column 6 (16 points).
As a high control, 5-(4-fluorophenyl)-2-ureidothiophene-3-carboxamide (obtainable from, for example, Sigma) at a final concentration of 10^−4 M in DMSO should be used in column 18 (16 points).
9. Make the cell suspension at the concentration 8×10^5 cells/mL to give a final number of 40,000 cells/well.
1. Add well mixed CD3/CD28 Dynabeads (as supplied, for example, by Dynal) to achieve ratio bead:cell=2:1 (ie. a dilution of 1 in 20). Mix thoroughly.
2. Dispense the suspension into the 384 Assay Plates using Multidrop (50 uL per well). If the volume of cell suspension is large, mix the suspension after dispensing into every other plate.
3. Cover the plates with the lids and place them to the humidified incubator (37° C., 5% CO2) for 48 hours.
1. Transfer 10 uL of supernatants from assay plates to the MSD plates using Cybiwell. Ensure that all wells are covered with the solution. Tap the plate gently, if some of the wells are not covered with the supernatant.
3. Add 10 uL of MSD IL-17 detecting antibody using multidrop (1 ug/mL in D-PBS without Ca^2+ and Mg^2+ (supplied, for example, by Gibco)).
4. Cover the plates with adhesive foil and incubated with shaking for 3 hours at room temperature
7. Add 35 uL of MSD Read Buffer T×2 using multidrop.
8. Read plates on MSD MA6000 reader using the 384 well plate protocol as per manufacturer's instructions.

Test [2] has as its target T1, Human RORγ Ligand Binding Domain (RORγ-LBD) (Homo sapiens, UniProt P51449).
T1 construct: His6 with thrombin site) (N); made in house; host or cells: E. coli BL21(DE3), modified pET21a vector
T1 sequence (P51449 263-518): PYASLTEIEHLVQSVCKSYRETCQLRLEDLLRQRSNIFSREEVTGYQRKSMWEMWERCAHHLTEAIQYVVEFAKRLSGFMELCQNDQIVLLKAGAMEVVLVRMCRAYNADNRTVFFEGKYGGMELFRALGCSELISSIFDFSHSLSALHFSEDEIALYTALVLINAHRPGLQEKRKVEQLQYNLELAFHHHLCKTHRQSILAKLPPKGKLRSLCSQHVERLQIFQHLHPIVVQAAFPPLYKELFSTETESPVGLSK
Kind of test: Dual Fluorescence Energy Transfer (FRET) assay: co-activator SRC1(2) peptide interaction with RORγ-LBD. The format is biochemical. Particulars: RORγ-LBD / SRC1(2) peptide, read-out: mean pIC50 (converted). The text has this:
Dual Fluorescence Energy Transfer (FRET) Assay
This assay is based on the knowledge that nuclear receptors interact with cofactors (transcription factors) in a ligand dependent manner. RORγ is a typical nuclear receptor in that it has an AF2 domain in the ligand binding domain (LBD) which interacts with co-activators.
This assay measures ligand-mediated interaction of the co-activator peptide with the purified bacterial-expressed RORγ ligand binding domain (RORγ-LBD) to indirectly assess ligand binding. RORγ has a basal level of interaction with the co-activator SRC1(2) in the absence of ligand, thus, it is possible to find ligands that inhibit or enhance the RORγ/SRC1(2) interaction.
Human RORγ Ligand Binding Domain (RORγ-LBD) was expressed in E. coli strain BL21(DE3) as an amino-terminal polyhistidine tagged fusion protein. DNA encoding this recombinant protein was sub-cloned into a modified pET21a expression vector (Novagen).
Approximately 50 g E. coli cell pellet was resuspended in 300 mL of lysis buffer (30 mM imidazole pH 7.0 and 150 mM NaCl). Cells were lysed by sonication and cell debris was removed by centrifugation for 30 minutes at 20,000 g at 4° C. […] The clarified lysate was loaded onto a column (XK-26) packed with ProBond Nickel Chelating resin (InVitrogen), pre-equilibrated with 30 mM imidazole pH 7.0 and 150 mM NaCl. After washing to baseline absorbance with the equilibration buffer, the column was developed with a gradient from 30 to 500 mM imidazole pH 7.0. Column fractions containing the RORγ-LBD protein were pooled and concentrated to a volume of 5 mLs. The concentrated protein was loaded onto a Superdex 200 column pre-equilibrated with 20 mM Tris-Cl pH 7.2 and 200 mM NaCl. The fractions containing the desired RORγ-LBD protein were pooled together.
Purified RORγ-LBD was buffer exchanged by exhaustive dialysis [3 changes of at least 20 volumes (>8000×)] against PBS [100 mM NaPhosphate, pH 8 and 150 mM NaCl]. […] The modified RORγ-LBD was dialyzed against 2 buffer changes—TBS pH 8.0 containing 5 mM DTT, 2 mM EDTA and 2% sucrose—each at least 20 times of the volume. The modified protein was distributed into aliquots, frozen on dry ice and stored at −80° C. The biotinylated RORγ-LBD was subjected to mass spectrometric analysis to reveal the extent of modification by the biotinylation reagent.
Biotinylated SRC1(2) solution was prepared by adding an appropriate amount of biotinylated SRC1(2) from the 100 uM stock solution to a buffer containing 10 mM of freshly added DTT from solid to give a final concentration of 40 nM. An appropriate amount of Europium labeled Streptavidin was then added to the biotinylated SRC1(2) solution in a tube to give a final concentration of 10 nM. The tube was inverted gently and incubated for 15 minutes at room temperature. Twenty-fold excess biotin from the 10 mM stock solution was added and the tube was inverted gently and incubated for 10 minutes at room temperature.
Biotinylated RORγ-LBD solution was prepared by adding an appropriate amount of biotinylated RORγ-LBD from the stock solution to a buffer containing 10 mM of freshly added DTT from solid to give a final concentration of 40 nM. An appropriate amount of APC labeled Streptavidin was then added to the biotinylated RORγ-LBD solution in a tube to give a final concentration of 20 nM. The tube was inverted gently and incubated for 15 minutes at room temperature. Twenty-fold excess biotin from the 10 mM stock solution was then added and the tube was inverted gently and incubated for 10 minutes at room temperature.
The reaction mixtures were incubated for 5 minutes. […] The plates were incubated for 1 hour and then read on ViewLux in Lance mode for EU/APC.

On to `CCc1ccc(N(CC(C)C)S(=O)(=O)c2ccc([C@@H](O)CN3CCOCC3)c(CO)c2)cc1` [Example E126, N-(4-ethylphenyl)-4-(1-hydroxy-2-morpholinoethyl)-3-(hydroxymethyl)-N-isobutylbenzenesulfonamide], for which the IC50 is 794 nM in test [1] and 63.1 nM in test [2].
